From patent publication US9376429B2, “Sodium channel blockers, preparation method thereof and use thereof” (Daewoong Pharmaceutical Co., Ltd., priority 2012, dated 2016)
pIC50: −log10 of the molar value.

Target: T1, sodium ion channel (Nav1.7) (Homo sapiens, UniProt Q15858)
T1 construct: host or cells: HEK293
Assay: Blocking effect against sodium ion channel (Nav1.7), IonFlux16 auto patch clamp, hNav1.7 HEK293 cells
Assay type: cell-based
Conditions: peak current after 50 seconds treatment, eight concentrations
Method: In order to measure the activities of the inventive compounds as antagonists, an experiment on a blocking effect against the sodium ion channel (Nav1.7) was carried out as follows.
The hNav1.7 HEK293 cell line used was a cell line having a human sodium ion channel 1.7 gene (type IX voltage-gated sodium channel alpha subunit) in human embryonic kidney (HEK) 293 cells and was purchased from Millipore. The medium used was prepared by adding 1% 100×NEAA and 10% heat inactivated FBS to DMEM F-12 and adding 1% P/S as an antibiotic thereto. G-418 as a […] was added during subculture, and the hNav1.7 HEK293 cells were cultured to a confluence of about 80% in a T75 flask in a 5% CO2 incubator at 37° C. for 2 or 3 days and detached from the flask by treatment with 0.25% trypsin solution. Then, the cells were collected by centrifugation and used in the experiment.
The compounds prepared in the Examples of the present invention were dissolved in dimethyl sulfoxide (DMSO) and used in the experiment. 90 mM and 10 mM DMSO stock solutions were prepared from each of the compounds and diluted in an extracellular solution (4 mM KCl, 138 mM NaCl, 1 mM MgCl2, 1.8 mM CaCl2, 5.6 mM glucose, 10 mM HEPES, pH 7.45) at various concentrations so that the final concentration of each compound in DMSO was 0.3% or less.
To measure the sodium ion channel blocking effect, an IonFlux16 Auto patch clamp system (Fluxion, Inc.) and a plate for exclusive use were used. The cells were distributed in an extracellular solution (4 mM KCl, 138 mM NaCl, 1 mM MgCl2, 1.8 mM CaCl2, 5.6 mM glucose, 10 mM HEPES, pH 7.45), and then dispensed in the specified region of the plate, and each of the prepared compound samples was diluted at various concentrations, and then dispensed in the specified region of the plate.
Specifically, eight concentrations per compound were set, and percent inhibition was determined by calculating the percentage of inhibition of the peak current, generated after treating the cells with each concentration of the compound for 50 seconds, relative to the peak current generated before treatment with the compound, and the IC50 value was calculated using the Sigma plot program. In Table 2 below, the percent inhibition of Nav1.7 is rated as follows: […]

T1 sequence (Q15858 whole entry): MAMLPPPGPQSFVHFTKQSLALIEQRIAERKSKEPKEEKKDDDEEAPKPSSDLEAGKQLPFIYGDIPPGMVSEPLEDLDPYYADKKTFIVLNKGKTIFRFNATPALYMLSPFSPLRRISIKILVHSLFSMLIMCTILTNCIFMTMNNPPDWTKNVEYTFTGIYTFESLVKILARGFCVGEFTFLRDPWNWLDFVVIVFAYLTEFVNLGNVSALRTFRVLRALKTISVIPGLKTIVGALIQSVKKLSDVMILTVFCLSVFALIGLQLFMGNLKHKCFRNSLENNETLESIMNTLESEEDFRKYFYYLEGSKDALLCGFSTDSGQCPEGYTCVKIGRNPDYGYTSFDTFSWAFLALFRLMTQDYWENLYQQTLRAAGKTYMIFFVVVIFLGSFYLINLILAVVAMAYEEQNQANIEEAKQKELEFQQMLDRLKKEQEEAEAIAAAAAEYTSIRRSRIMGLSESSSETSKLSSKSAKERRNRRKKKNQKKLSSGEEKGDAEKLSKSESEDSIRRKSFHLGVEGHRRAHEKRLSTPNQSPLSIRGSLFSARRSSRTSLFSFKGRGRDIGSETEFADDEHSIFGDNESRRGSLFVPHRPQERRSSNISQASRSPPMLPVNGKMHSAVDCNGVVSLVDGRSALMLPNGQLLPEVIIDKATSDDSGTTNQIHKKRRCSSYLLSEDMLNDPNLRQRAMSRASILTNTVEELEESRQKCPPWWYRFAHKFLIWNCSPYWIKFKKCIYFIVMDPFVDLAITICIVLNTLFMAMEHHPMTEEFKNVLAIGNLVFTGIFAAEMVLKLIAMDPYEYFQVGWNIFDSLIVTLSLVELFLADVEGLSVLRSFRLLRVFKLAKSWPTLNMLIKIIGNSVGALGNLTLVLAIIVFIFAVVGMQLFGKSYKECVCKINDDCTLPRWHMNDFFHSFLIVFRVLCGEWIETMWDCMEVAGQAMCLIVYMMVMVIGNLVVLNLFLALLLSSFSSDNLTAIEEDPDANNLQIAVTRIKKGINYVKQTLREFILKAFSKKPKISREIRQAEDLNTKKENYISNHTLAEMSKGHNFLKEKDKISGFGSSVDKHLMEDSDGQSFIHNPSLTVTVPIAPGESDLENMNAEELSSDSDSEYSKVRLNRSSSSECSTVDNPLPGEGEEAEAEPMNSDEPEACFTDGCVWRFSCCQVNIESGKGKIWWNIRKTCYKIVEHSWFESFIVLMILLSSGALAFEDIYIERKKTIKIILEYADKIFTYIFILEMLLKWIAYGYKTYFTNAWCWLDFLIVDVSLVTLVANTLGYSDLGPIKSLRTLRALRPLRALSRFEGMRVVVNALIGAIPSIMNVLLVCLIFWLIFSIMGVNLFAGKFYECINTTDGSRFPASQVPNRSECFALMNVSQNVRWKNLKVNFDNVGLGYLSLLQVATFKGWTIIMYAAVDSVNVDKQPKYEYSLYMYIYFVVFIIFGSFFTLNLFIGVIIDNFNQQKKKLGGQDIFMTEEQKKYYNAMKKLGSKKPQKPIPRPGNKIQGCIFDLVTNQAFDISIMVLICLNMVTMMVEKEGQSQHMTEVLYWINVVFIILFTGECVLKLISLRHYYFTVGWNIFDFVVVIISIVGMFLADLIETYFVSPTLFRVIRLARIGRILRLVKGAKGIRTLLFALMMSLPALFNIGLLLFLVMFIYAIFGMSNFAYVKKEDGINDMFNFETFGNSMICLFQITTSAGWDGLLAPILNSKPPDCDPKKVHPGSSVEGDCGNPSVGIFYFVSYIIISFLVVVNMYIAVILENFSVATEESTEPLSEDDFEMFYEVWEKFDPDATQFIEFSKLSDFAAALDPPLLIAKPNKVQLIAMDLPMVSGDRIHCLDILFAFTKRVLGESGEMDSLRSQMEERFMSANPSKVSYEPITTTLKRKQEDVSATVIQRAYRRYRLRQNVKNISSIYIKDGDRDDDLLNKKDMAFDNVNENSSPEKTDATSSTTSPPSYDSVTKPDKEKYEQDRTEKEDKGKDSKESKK

| SMILES | pIC50 |
| --- | --- |
| O=S(=O)(Nc1nccs1)c1ccc(C(O)c2ccc(-c3ccoc3)cc2-c2ccoc2)cc1 (centres unmarked) [Example 149, 4-((2,4-di(furan-3-yl)phenyl)(hydroxy)methyl)-N-(thiazol-2-yl)benzenesulfonamide] | < 7.00 |
| N#Cc1cc(S(=O)(=O)Nc2nccs2)ccc1Oc1cnc(-c2cccnc2F)cc1-c1cccnc1 [Example 51, 3-cyano-4-((2-fluoro-[3,2′:4′,3″-terpyridin]-5′-yl)oxy)-N-(thiazol-2-yl)benzenesulfonamide] | < 7.00 |
| O=S(=O)(Nc1cscn1)c1cc(Cl)c(Oc2cnc(-c3cccc(F)c3)cc2-c2cccnc2)cc1F [Example 74, 5-chloro-2-fluoro-4-((6′-(3-fluorophenyl)-[3,4′-bipyridin]-3′-yl)oxy)-N-(thiazol-4-yl)benzenesulfonamide] | < 7.00 |
| N#Cc1cc(S(=O)(=O)Nc2nccs2)ccc1Oc1cnc(-c2cccc(C(F)(F)F)c2)cc1-c1ccoc1 [Example 8, 3-cyano-4-(4-(furan-3-yl)-6-(3-(trifluoromethyl)phenyl)pyridin-3-yloxy)-N-(thiazol-2-yl)benzenesulfonamide] | < 7.00 |
| N#Cc1cc(S(=O)(=O)Nc2nccs2)ccc1Oc1cnc(-c2cccnc2F)cc1-c1ccoc1 [Example 10, 3-cyano-4-(2′-fluoro-4-(furan-3-yl)-2,3′-bipyridin-5-yloxy)-N-(thiazol-2-yl)benzenesulfonamide] | 7.00 to 7.29 |
| N#Cc1cc(S(=O)(=O)Nc2nccs2)ccc1Oc1ccc(-c2ccc(F)cc2)nc1-c1ccoc1 [Example 109, 3-cyano-4-((6-(4-fluorophenyl)-2-(furan-3-yl)pyridin-3-yl)oxy)-N-(thiazol-2-yl)benzenesulfonamide] | > 7.30 |
| Cn1nccc1-c1nc(-c2cccnc2F)ccc1Oc1ccc(S(=O)(=O)Nc2nccs2)cc1C#N [Example 116, 3-cyano-4-((2′-fluoro-6-(1-methyl-1H-pyrazol-5-yl)-[2,3′-bipyridin]-5-yl)oxy)-N-(thiazol-2-yl)benzenesulfonamide] | < 7.00 |
| O=S(=O)(Nc1cscn1)c1cc(Cl)c(Oc2cnc(-c3cccc(F)c3)cc2-c2ccnc(F)c2)cc1F [Example 79, 5-chloro-2-fluoro-4-((2′-fluoro-6-(3-fluorophenyl)-[4,4′-bipyridin]-3-yl)oxy)-N-(thiazol-4-yl)benzenesulfonamide] | < 7.00 |
| O=S(=O)(Nc1nccs1)c1ccc(C(O)c2ccc(Cl)cc2-c2cn[nH]c2)c(F)c1 (centres unmarked) [Example 139, 4-((4-chloro-2-(1H-pyrazol-4-yl)phenyl)(hydroxy)methyl)-3-fluoro-N-(thiazol-2-yl)benzenesulfonamide] | < 7.00 |
| N#Cc1cc(S(=O)(=O)Nc2nccs2)ccc1Oc1cnc(-c2ccccc2)cc1-c1ccncc1Cl [Example 35, 4-((3′-chloro-6-phenyl-[4,4′-bipyridin]-3-yl)oxy)-3-cyano-N-(thiazol-2-yl)benzenesulfonamide] | < 7.00 |
| Cn1nccc1-c1nc(-c2ccc(F)nc2)ccc1Oc1ccc(S(=O)(=O)Nc2nccs2)cc1C#N [Example 115, 3-cyano-4-((6′-fluoro-6-(1-methyl-1H-pyrazol-5-yl)-[2,3′-bipyridin]-5-yl)oxy)-N-(thiazol-2-yl)benzenesulfonamide] | < 7.00 |
| Cn1nccc1-c1nc(-c2ccnc(F)c2)ccc1Oc1ccc(S(=O)(=O)Nc2nccs2)cc1C#N [Example 107, 3-cyano-4-((2′-fluoro-6-(1-methyl-1H-pyrazol-5-yl)-[2,4′-bipyridin]-5-yl)oxy)-N-(thiazol-2-yl)benzenesulfonamide] | < 7.00 |
| O=S(=O)(Nc1nccs1)c1ccc(C(O)c2ccc(-c3ccc(F)cc3)cc2-c2ccoc2)cc1 (centres unmarked) [Example 154, 4-((4′-fluoro-3-(furan-3-yl)-[1,1′-biphenyl]-4-yl)(hydroxy)methyl)-N-(thiazol-2-yl)benzenesulfonamide] | < 7.00 |
| N#Cc1cc(S(=O)(=O)Nc2nccs2)ccc1Oc1ccc(-c2cccc(F)c2)nc1-c1ccoc1 [Example 110, 3-cyano-4-((6-(3-fluorophenyl)-2-(furan-3-yl)pyridin-3-yl)oxy)-N-(thiazol-2-yl)benzenesulfonamide] | > 7.30 |
| O=S(=O)(Nc1cscn1)c1cc(Cl)c(Oc2cnc(-c3ccc(F)c(F)c3)cc2-c2ccnc(F)c2)cc1F [Example 80, 5-chloro-4-((6-(3,4-difluorophenyl)-2′-fluoro-[4,4′-bipyridin]-3-yl)oxy)-2-fluoro-N-(thiazol-4-yl)benzenesulfonamide] | < 7.00 |
| Cn1nccc1-c1cc(-c2ccc(F)nc2)ncc1Oc1ccc(S(=O)(=O)Nc2nccs2)cc1C#N [Example 19, 3-cyano-4-((6′-fluoro-4-(1-methyl-1H-pyrazol-5-yl)-[2,3′-bipyridin]-5-yl)oxy)-N-(thiazol-2-yl)benzenesulfonamide] | < 7.00 |
| O=S(=O)(Nc1cscn1)c1cc(F)c(Oc2cnc(-c3cccc(F)c3)cc2-c2cccnc2)cc1F [Example 87, 2,5-difluoro-4-((6′-(3-fluorophenyl)-[3,4′-bipyridin]-3′-yl)oxy)-N-(thiazol-4-yl)benzenesulfonamide] | < 7.00 |
| N#Cc1cc(S(=O)(=O)Nc2cscn2)ccc1Oc1cnc(-c2ccc(F)cc2)cc1-c1cn[nH]c1 [Example 90, 3-cyano-4-((6-(4-fluorophenyl)-4-(1H-pyrazol-4-yl)pyridin-3-yl)oxy)-N-(thiazol-4-yl)benzenesulfonamide] | < 7.00 |
| Cc1cc(-c2cc(-c3ccccc3)ncc2Oc2ccc(S(=O)(=O)Nc3nccs3)cc2C#N)c(C)s1 [Example 41, 3-cyano-4-((4-(2,5-dimethylthiophen-3-yl)-6-phenylpyridin-3-yl)oxy)-N-(thiazol-2-yl)benzenesulfonamide] | < 7.00 |
| N#Cc1cc(S(=O)(=O)Nc2cscn2)ccc1Oc1cnc(-c2cccc(F)c2)cc1-c1cn[nH]c1 [Example 83, 3-cyano-4-((6-(3-fluorophenyl)-4-(1H-pyrazol-4-yl)pyridin-3-yl)oxy)-N-(thiazol-4-yl)benzenesulfonamide] | < 7.00 |
| Cn1nccc1-c1nc(-c2cnoc2)ccc1Oc1ccc(S(=O)(=O)Nc2nccs2)cc1C#N [Example 121, 3-cyano-4-((6-(isoxazol-4-yl)-2-(1-methyl-1H-pyrazol-5-yl)pyridin-3-yl)oxy)-N-(thiazol-2-yl)benzenesulfonamide] | < 7.00 |
| O=S(=O)(Nc1cscn1)c1cc(F)c(Oc2cnc(-c3ccc(C(F)(F)F)c(F)c3)cc2-c2cccnc2)cc1F [Example 89, 2,5-difluoro-4-((6′-(3-fluoro-4-(trifluoromethyl)phenyl)-[3,4′-bipyridin]-3′-yl)oxy)-N-(thiazol-4-yl)benzenesulfonamide] | < 7.00 |
| Cn1nccc1-c1nc(-c2ccccc2F)ccc1Oc1ccc(S(=O)(=O)Nc2nccs2)cc1C#N [Example 118, 3-cyano-4-((6-(2-fluorophenyl)-2-(1-methyl-1H-pyrazol-5-yl)pyridin-3-yl)oxy)-N-(thiazol-2-yl)benzenesulfonamide] | < 7.00 |
| O=S(=O)(Nc1nccs1)c1ccc(Oc2cnc(-c3cccnc3F)cc2-c2ccoc2)c(F)c1 [Example 47, 3-fluoro-4-((2′-fluoro-4-(furan-3-yl)-[2,3′-bipyridin]-5-yl)oxy)-N-(thiazol-2-yl)benzenesulfonamide] | < 7.00 |
| O=S(=O)(Nc1nccs1)c1ccc(C(O)c2ccc(-c3cccc(F)c3)cc2-c2ccoc2)cc1 (centres unmarked) [Example 153, 4-((3′-fluoro-3-(furan-3-yl)-[1,1′-biphenyl]-4-yl)(hydroxy)methyl)-N-(thiazol-2-yl)benzenesulfonamide] | 7.00 to 7.29 |
| O=S(=O)(Nc1cscn1)c1cc(Cl)c(Oc2cnc(-c3ccc(F)c(F)c3)cc2-c2cccnc2)cc1F [Example 82, 5-chloro-4-((6′-(3,4-difluorophenyl)-[3,4′-bipyridin]-3′-yl)oxy)-2-fluoro-N-(thiazol-4-yl)benzenesulfonamide] | < 7.00 |
| N#Cc1cc(S(=O)(=O)Nc2nccs2)ccc1Oc1ccc(-c2ccnc(F)c2)nc1-c1ccoc1 [Example 112, 3-cyano-4-((2′-fluoro-6-(furan-3-yl)-[2,4′-bipyridin]-5-yl)oxy)-N-(thiazol-2-yl)benzenesulfonamide] | 7.00 to 7.29 |
| Cn1cc(-c2cc(-c3cnn(C)c3)c(Oc3ccc(S(=O)(=O)Nc4ncns4)cc3C#N)cn2)cn1 [Example 55, 4-((4,6-bis(1-methyl-1H-pyrazol-4-yl)pyridin-3-yl)oxy)-3-cyano-N-(1,2,4-thiadiazol-5-yl)benzenesulfonamide] | < 7.00 |
| O=S(=O)(Nc1cscn1)c1cc(Cl)c(Oc2cnc(-c3cccc(F)c3)cc2-c2cn(-c3cccnc3)cn2)cc1F [Example 100, 5-chloro-2-fluoro-4-((6-(3-fluorophenyl)-4-(1-(pyridin-3-yl)-1H-imidazol-4-yl)pyridin-3-yl)oxy)-N-(thiazol-4-yl)benzenesulfonamide] | < 7.00 |
